The kinase profiling compilation of Christmann-Franck et al. (2016)

Assays:
Experiment in all cases: KINOMEscan competition binding
Details in all cases: compound 2.0 µM
IRAK1 (human) = IRAK1 (human) (UniProt P51617)
MAPK8 (human) = MAPK8 (human) (UniProt P45983)
YES1 (human) = YES1 (human) (UniProt P07947)
PRKAA2 (human) = PRKAA2 (human) (UniProt P54646)
EIF2AK2 (human) = EIF2AK2 (human) (UniProt P19525)
[1] = system: PIK3CA (human), P42336 [H1047L]
RIOK3 (human) = RIOK3 (human) (UniProt O14730)
FRK (human) = FRK (human) (UniProt P42685)
Chain of FRK (human) (P42685 whole entry, looked up): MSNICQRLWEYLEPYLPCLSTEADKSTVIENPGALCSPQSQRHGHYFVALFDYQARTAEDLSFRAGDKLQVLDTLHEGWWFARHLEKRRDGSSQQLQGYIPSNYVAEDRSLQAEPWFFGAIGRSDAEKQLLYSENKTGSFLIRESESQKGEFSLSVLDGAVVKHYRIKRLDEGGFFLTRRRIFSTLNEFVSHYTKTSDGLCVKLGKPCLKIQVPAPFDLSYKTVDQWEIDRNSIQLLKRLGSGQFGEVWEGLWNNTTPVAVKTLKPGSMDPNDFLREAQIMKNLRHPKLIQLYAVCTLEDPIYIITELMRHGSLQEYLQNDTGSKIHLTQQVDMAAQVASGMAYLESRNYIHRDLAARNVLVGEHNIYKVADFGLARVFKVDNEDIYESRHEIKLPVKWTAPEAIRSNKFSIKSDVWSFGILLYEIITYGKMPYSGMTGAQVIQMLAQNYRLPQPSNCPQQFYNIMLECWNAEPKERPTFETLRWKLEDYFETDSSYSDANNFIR

PIM1 (human) = PIM1 (human) (UniProt P11309)
STK32A (human) = STK32A (human) (UniProt Q8WU08)
GRK7 (human) = GRK7 (human) (UniProt Q8WTQ7)
MAP3K13 (human) = MAP3K13 (human) (UniProt O43283)
Chain of MAP3K13 (human) (O43283 whole entry, looked up): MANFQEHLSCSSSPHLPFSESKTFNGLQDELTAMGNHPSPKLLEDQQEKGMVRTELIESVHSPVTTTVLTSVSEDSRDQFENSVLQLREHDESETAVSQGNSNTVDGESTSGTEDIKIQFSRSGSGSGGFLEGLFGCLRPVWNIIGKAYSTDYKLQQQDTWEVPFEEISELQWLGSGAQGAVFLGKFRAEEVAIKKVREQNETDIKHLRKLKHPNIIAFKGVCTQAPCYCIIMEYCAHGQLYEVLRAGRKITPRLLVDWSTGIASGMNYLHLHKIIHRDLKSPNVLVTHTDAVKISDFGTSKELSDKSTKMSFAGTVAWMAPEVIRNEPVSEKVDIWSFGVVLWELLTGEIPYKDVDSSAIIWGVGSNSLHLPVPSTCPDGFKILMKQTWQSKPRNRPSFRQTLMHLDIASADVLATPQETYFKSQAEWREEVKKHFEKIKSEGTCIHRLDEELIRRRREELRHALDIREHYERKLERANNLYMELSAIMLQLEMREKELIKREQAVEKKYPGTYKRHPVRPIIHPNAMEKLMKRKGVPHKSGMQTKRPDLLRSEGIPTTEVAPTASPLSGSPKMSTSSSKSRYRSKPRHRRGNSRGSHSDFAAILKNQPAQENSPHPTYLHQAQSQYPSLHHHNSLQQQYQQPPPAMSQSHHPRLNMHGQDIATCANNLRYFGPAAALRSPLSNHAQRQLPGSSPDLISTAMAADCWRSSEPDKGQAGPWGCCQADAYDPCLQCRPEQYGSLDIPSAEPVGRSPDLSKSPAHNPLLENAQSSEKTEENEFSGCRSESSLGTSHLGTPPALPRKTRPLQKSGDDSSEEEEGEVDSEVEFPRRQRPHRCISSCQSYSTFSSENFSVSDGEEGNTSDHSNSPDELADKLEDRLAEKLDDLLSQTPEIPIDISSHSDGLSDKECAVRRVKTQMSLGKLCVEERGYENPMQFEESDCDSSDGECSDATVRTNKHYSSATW

BMP2K (human) = BMP2K (human) (UniProt Q9NSY1)
IRAK4 (human) = IRAK4 (human) (UniProt Q9NWZ3)
PRKD1 (human) = PRKD1 (human) (UniProt Q15139)
TSSK1B (human) = TSSK1B (human) (UniProt Q9BXA7)
LIMK2 (human) = LIMK2 (human) (UniProt P53671)
Chain of LIMK2 (human) (P53671 whole entry, looked up): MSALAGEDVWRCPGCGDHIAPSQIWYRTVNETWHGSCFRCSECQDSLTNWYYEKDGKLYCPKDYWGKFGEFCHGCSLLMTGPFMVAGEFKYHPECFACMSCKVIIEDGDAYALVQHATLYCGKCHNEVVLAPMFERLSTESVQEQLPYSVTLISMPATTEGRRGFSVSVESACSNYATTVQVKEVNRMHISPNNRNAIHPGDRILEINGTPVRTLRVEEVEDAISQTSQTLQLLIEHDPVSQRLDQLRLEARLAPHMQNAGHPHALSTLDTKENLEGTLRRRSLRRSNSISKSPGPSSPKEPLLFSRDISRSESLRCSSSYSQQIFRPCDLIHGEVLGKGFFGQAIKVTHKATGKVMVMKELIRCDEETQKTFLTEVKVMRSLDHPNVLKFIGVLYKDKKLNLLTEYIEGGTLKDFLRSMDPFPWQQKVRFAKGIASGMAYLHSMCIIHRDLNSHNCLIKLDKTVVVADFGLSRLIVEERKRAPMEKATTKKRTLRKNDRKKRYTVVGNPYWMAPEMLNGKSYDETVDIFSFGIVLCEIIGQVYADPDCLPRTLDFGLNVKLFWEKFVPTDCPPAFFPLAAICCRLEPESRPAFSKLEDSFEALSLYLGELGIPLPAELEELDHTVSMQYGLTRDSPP

CDC2L2 (human) = CDC2L2 (human) (UniProt Q9UQ88)
AURKA (human) = AURKA (human) (UniProt O14965)
[2] = system: MET (human), P08581 [M1250T]
MAPK13 (human) = MAPK13 (human) (UniProt O15264)
SIK3 (human) = SIK3 (human) (UniProt Q9Y2K2)
GRK1 (human) = GRK1 (human) (UniProt Q15835)
Chain of GRK1 (human) (Q15835 whole entry, looked up): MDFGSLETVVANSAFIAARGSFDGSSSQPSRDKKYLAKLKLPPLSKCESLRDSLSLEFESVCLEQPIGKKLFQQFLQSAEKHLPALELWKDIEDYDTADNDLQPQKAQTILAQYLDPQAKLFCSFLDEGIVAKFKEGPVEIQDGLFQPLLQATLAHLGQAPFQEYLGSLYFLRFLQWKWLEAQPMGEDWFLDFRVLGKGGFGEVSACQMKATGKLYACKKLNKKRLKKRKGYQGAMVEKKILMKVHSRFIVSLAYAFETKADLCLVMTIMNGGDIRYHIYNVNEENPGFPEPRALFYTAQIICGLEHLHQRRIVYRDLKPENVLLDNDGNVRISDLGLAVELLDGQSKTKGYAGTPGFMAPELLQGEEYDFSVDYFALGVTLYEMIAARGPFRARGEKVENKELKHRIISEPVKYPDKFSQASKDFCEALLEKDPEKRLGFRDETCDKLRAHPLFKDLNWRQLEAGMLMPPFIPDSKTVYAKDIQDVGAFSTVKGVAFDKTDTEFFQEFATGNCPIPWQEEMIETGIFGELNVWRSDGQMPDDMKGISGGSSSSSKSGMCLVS

FER (human) = FER (human) (UniProt P16591)
Chain of FER (human) (P16591 whole entry, looked up): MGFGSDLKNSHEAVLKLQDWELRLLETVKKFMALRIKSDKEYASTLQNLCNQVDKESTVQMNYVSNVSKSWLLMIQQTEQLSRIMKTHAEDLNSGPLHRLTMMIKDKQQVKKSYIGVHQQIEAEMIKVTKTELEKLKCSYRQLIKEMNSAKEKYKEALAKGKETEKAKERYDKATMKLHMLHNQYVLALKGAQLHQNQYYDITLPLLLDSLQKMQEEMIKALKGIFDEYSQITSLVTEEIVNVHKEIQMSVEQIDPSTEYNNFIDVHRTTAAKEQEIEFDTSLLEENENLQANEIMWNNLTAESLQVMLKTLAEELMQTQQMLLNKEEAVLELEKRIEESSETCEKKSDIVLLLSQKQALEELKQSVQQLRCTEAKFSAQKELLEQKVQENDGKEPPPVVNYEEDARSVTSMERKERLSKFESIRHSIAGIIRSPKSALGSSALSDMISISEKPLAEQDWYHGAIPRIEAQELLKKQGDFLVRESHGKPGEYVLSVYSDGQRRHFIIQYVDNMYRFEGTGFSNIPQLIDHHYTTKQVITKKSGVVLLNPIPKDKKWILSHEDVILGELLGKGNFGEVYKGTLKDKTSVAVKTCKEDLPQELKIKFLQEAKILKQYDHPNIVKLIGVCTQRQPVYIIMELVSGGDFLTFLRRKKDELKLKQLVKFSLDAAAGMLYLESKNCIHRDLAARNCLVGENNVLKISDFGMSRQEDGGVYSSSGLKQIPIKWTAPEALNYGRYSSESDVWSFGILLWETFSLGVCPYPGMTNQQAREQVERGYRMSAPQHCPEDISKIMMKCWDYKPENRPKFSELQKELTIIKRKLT

PKMYT1 (human) = PKMYT1 (human) (UniProt Q99640)
[3] = system: ABL1 (human), P00519 [M351T]
NEK3 (human) = NEK3 (human) (UniProt P51956)
Chain of NEK3 (human) (P51956 whole entry, looked up): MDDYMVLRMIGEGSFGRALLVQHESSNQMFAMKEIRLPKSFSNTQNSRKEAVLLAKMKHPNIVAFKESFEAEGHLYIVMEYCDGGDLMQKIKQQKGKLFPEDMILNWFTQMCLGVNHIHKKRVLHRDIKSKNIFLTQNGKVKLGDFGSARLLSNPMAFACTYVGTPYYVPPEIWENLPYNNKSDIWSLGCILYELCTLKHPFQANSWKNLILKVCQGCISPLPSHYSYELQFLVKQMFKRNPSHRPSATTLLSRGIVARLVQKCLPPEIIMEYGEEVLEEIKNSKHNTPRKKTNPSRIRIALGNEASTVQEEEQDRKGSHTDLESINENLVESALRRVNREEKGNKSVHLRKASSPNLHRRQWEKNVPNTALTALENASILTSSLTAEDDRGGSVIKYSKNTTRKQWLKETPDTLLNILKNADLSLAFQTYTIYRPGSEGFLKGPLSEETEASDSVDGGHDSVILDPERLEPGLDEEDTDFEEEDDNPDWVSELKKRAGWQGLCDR

MAP3K10 (human) = MAP3K10 (human) (UniProt Q02779)
[4] = molecular target: JAK1 JH1 catalytic (human) (UniProt P23458)
FGR (human) = FGR (human) (UniProt P09769)
MAP3K3 (human) = MAP3K3 (human) (UniProt Q99759)
CDK19 (human) = CDK19 (human) (UniProt Q9BWU1)
PTK2B (human) = PTK2B (human) (UniProt Q14289)
NIM1 (human) = NIM1 (human) (UniProt Q8IY84)
CDK17 (human) = CDK17 (human) (UniProt Q00537)
Chain of CDK17 (human) (Q00537 whole entry, looked up): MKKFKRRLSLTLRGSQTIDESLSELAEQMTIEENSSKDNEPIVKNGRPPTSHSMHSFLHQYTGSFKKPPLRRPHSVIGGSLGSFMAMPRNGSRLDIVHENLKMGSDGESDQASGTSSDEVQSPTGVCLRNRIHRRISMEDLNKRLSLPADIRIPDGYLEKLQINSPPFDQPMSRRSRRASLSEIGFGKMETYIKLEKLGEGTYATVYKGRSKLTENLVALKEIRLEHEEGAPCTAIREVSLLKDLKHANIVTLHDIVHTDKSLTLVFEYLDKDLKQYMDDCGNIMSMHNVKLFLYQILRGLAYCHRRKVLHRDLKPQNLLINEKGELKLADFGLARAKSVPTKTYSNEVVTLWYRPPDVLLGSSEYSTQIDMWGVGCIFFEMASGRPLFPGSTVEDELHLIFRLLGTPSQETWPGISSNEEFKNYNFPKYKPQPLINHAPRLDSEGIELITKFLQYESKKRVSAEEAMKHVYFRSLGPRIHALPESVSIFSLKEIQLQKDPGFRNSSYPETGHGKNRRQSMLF

EPHA6 (human) = EPHA6 (human) (UniProt Q9UF33)
CDK9 (human) = CDK9 (human) (UniProt P50750)
Chain of CDK9 (human) (P50750 whole entry, looked up): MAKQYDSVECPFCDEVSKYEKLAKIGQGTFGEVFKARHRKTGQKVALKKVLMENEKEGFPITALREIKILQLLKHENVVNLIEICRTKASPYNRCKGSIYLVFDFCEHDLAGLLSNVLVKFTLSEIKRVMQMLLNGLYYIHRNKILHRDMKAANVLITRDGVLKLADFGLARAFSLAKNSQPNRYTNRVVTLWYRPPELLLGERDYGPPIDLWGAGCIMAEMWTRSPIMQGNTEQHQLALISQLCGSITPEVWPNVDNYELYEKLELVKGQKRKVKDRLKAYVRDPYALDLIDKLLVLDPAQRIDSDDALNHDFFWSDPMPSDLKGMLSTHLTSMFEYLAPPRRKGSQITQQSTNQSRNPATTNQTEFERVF

CDKL5 (human) = CDKL5 (human) (UniProt O76039)
MARK1 (human) = MARK1 (human) (UniProt Q9P0L2)
PRKCI (human) = PRKCI (human) (UniProt P41743)
FGFR4 (human) = FGFR4 (human) (UniProt P22455)
PKN2 (human) = PKN2 (human) (UniProt Q16513)
MAPK9 (human) = MAPK9 (human) (UniProt P45984)

SMILES: N#Cc1ccc2ncnc(NCCc3ccc4ccccc4c3)c2c1
- kinase still bound, per cent of control (IRAK1 (human)): 98%
- kinase still bound, per cent of control (MAPK8 (human)): 100%
- kinase still bound, per cent of control (YES1 (human)): 86%
- kinase still bound, per cent of control (PRKAA2 (human)): 80%
- kinase still bound, per cent of control (EIF2AK2 (human)): 72%
- kinase still bound, per cent of control [1]: 100%
- kinase still bound, per cent of control (RIOK3 (human)): 100%
- kinase still bound, per cent of control (FRK (human)): 100%
- kinase still bound, per cent of control (PIM1 (human)): 95%
- kinase still bound, per cent of control (STK32A (human)): 100%
- kinase still bound, per cent of control (GRK7 (human)): 100%
- kinase still bound, per cent of control (MAP3K13 (human)): 100%
- kinase still bound, per cent of control (BMP2K (human)): 68%
- kinase still bound, per cent of control (IRAK4 (human)): 100%
- kinase still bound, per cent of control (PRKD1 (human)): 100%
- kinase still bound, per cent of control (TSSK1B (human)): 100%
- kinase still bound, per cent of control (LIMK2 (human)): 94%
- kinase still bound, per cent of control (CDC2L2 (human)): 100%
- kinase still bound, per cent of control (AURKA (human)): 94%
- kinase still bound, per cent of control [2]: 73%
- kinase still bound, per cent of control (MAPK13 (human)): 100%
- kinase still bound, per cent of control (SIK3 (human)): 100%
- kinase still bound, per cent of control (GRK1 (human)): 100%
- kinase still bound, per cent of control (FER (human)): 100%
- kinase still bound, per cent of control (PKMYT1 (human)): 100%
- kinase still bound, per cent of control [3]: 100%
- kinase still bound, per cent of control (NEK3 (human)): 100%
- kinase still bound, per cent of control (MAP3K10 (human)): 100%
- kinase still bound, per cent of control [4]: 59%
- kinase still bound, per cent of control (FGR (human)): 100%
- kinase still bound, per cent of control (MAP3K3 (human)): 100%
- kinase still bound, per cent of control (CDK19 (human)): 0.8%
- kinase still bound, per cent of control (PTK2B (human)): 85%
- kinase still bound, per cent of control (NIM1 (human)): 82%
- kinase still bound, per cent of control (CDK17 (human)): 90%
- kinase still bound, per cent of control (EPHA6 (human)): 100%
- kinase still bound, per cent of control (CDK9 (human)): 100%
- kinase still bound, per cent of control (CDKL5 (human)): 100%
- kinase still bound, per cent of control (MARK1 (human)): 83%
- kinase still bound, per cent of control (PRKCI (human)): 100%
- kinase still bound, per cent of control (FGFR4 (human)): 100%
- kinase still bound, per cent of control (PKN2 (human)): 100%
- kinase still bound, per cent of control (MAPK9 (human)): 97%
